This experiment can be described thus: non-covalent RecA intein splicing inhibitors, dose response, biochemical, cell-free, fluorescence, secondary screen (AID 449750).

Structures are written as SMILES. Calls of active or inactive are those of the source. The rule behind the calls is not given here. Bounds are passed on as bounds.

As for `Cc1ccc(C(=O)C2C(c3ccc(-c4ccccc4[N+](=O)[O-])o3)NC(=O)NC2(O)C(F)(F)F)cc1` (stereo not given), the AC50 was 19.9 µM.

On to `CCn1nc(C)c(C2C(C#N)=C(N)Oc3n[nH]c(C)c32)c1C` (stereo not given), for which the AC50 is > 38 µM (inactive).

As for `Cc1ccc(-n2nc(C)c3c2OC(N)=C(C#N)C3c2ccco2)cc1` (stereo not given), the AC50 is 12.9 µM.

Regarding `Cc1[nH][nH]c(=O)c1C(c1ccc(-c2ccc(F)cc2)o1)c1c(C)[nH][nH]c1=O`, the AC50 is 3.95 µM.

In the case of `FC(F)(F)c1ccc2c(c1)N(CCCN1CCN(CCCl)CC1)c1ccccc1S2`, the AC50 was 2.54 µM.

For `O=C1CCCC2=C1C(c1ccc3c(c1)OCO3)c1c([nH]n(-c3ccccc3)c1=O)N2` (stereo not given), the AC50 was 6.7 µM.

On to `O=C1/C(=C/Nc2cccc([N+](=O)[O-])c2)CCc2ccccc21`, for which the AC50 is > 38 µM (inactive).

As for `O=c1c2ccccc2nc2n1CCS2(=O)=O`, the AC50 was > 38 µM (inactive).

On to `CCC(=O)Oc1ccc(C(=O)Nc2cccc(C(=O)c3ccccc3)c2)cc1`, for which the AC50 was 32.8 µM.

Turning to `CCOc1ccc(Cl)cc1C(c1c(C)[nH][nH]c1=O)c1c(C)[nH][nH]c1=O`, the AC50 was 12 µM.

Take `O=C(CN1C(=O)S/C(=C\C=C\c2ccccc2)C1=O)Nc1ccccc1C(=O)O`: the AC50 was 14.1 µM.

On to `Cc1ccccc1N1C(=O)c2ccccc2C1Nc1cccnc1` (stereo not given), for which the AC50 was > 38 µM (inactive).

As to `CC1=NN(c2ccccc2)C(=O)C1=C(C)C`, the AC50 was 15.9 µM.

As for `S=C1Cc2ccccc2N1`, the AC50 is 3.46 µM.

`COc1ccc(C2NC(c3ccc(OC)cc3OC)C(C)C(=O)C2C)c(OC)c1` (stereo not given): the AC50 was > 38 µM (inactive).

As for `Cc1[nH][nH]c(=O)c1C(c1cc2c(cc1Br)OCO2)c1c(C)[nH][nH]c1=O`, the AC50 is 20.2 µM.

`CCCc1nn(C)c2c1C(c1cccnc1)C(C#N)=C(N)O2` (stereo not given): the AC50 is > 38 µM (inactive).

`O=c1[nH]cc(N=Cc2cc(Cl)cc(Cl)c2O)c(=O)[nH]1`: the AC50 was > 38 µM (inactive).

Regarding `COc1cccc(NC(=S)/C(=C(\[O-])c2ccc(OC(F)F)cc2)[n+]2ccccc2)c1`, the AC50 is 28.1 µM.

For the compound `Cc1ccc(NC2=C(N3CCCCC3)C(=O)c3ccccc3C2=O)cc1`, the AC50 is 8.12 µM.

On to `Cc1nnc(NC(=O)c2nc(S(=O)(=O)Cc3ccccc3)ncc2Cl)s1`, for which the half-maximal activity concentration (AC50) is 26.5 µM.

`CCNC(=O)c1ccccc1-c1nc(-c2ccccc2)no1`: the AC50 was > 38 µM (inactive).

Turning to `Cc1onc(-c2c(Cl)cccc2Cl)c1C(=O)N1C(C)CCCC1C` (stereo not given), the AC50 was > 38 µM (inactive).

On to `Cc1ccc(SCc2[nH]nc3c2C(c2ccc(C)o2)C(C#N)=C(N)O3)cc1` (stereo not given), for which the AC50 is > 38 µM (inactive).

Consider `O=S(=O)(c1ccc(Cl)cc1)c1snnc1-c1ccccc1`, for which the AC50 is > 38 µM (inactive).

On to `CC1(S(=O)(=O)O)CC(=O)c2ccccc2C1=O` (stereo not given), for which the half-maximal activity concentration (AC50) is 6.36 µM.

Take `CCc1ccc(OCC(=O)N/N=C2\CC(=O)c3ccccc32)cc1`: the AC50 is 26.8 µM.

For `N=c1c2c(-c3ccccc3)c(-c3ccccc3)n(Cc3ccco3)c2ncn1Cc1ccccc1`, the AC50 is 5.8 µM.

Consider `Cc1ccc(N(CCC#N)C(=O)CCl)cc1C`, for which the AC50 is 11.5 µM.

For the compound `Cc1ccccc1NC1=C(Cl)C(=O)OC1OC(=O)c1ccco1` (stereo not given), the AC50 was > 38 µM (inactive).

For `O=C(CCl)Nc1cccc(S(=O)(=O)N2CCCCCC2)c1`, the AC50 is > 38 µM (inactive).

Regarding `Cc1ccc(NC(=O)c2cc(NC(=O)/C=C\C(=O)O)ccc2N2CCCCC2)cc1`, the concentration at half-maximal activity (AC50) was 9.66 µM.

Turning to `COc1cc(NCCCC(C)N)c2ncccc2c1` (stereo not given), the AC50 is 18.1 µM.

On to `C/C(CC(=O)Nc1ccccn1)=N\NC(=O)Cc1cccc2ccccc12`, for which the AC50 is 25.6 µM.

As for `Cc1ccc2c(c1)c1c(n2CC(O)CN2CCCCCC2)CCCC1` (stereo not given), the AC50 is > 38 µM (inactive).

For `CC(=O)Nc1ccccc1NC(=O)C/C(C)=N/NC(=O)C(=O)N1CCCCC1`, the AC50 was > 38 µM (inactive).

`CCCc1[nH]nc2c1C(c1ccc(OC(=O)N3CCOCC3)c(OC)c1)C(C#N)=C(N)O2` (stereo not given): the AC50 was > 38 µM (inactive).

Consider `CC(=O)c1ccc(-c2cccc(-c3nc4ccccn4c3NC3CCCCC3)c2)cc1`, for which the AC50 was 6.79 µM.

Consider `O=S(=O)(N[C@H]1C[C@@H](NS(=O)(=O)OCC(Cl)(Cl)Cl)C2CCCCC21)OCC(Cl)(Cl)Cl` (stereo not given in full), for which the AC50 is 3.37 µM.

Take `O=c1[nH]c(CCl)nc2cc(-c3ccc(F)cc3)sc12`: the AC50 was 11.9 µM.

`Fc1ccc(Nc2nc(Oc3ccccc3F)nc(N3CCCC3)n2)cc1`: the AC50 is > 38 µM (inactive).

`CC(C)c1ccc(S(=O)(=O)/N=C2\C=C(NS(=O)(=O)c3ccccc3)C(=O)c3ccccc32)cc1`: the AC50 is 6.05 µM.

Consider `Cc1[nH][nH]c(=O)c1C(c1ccc(Cl)cc1)c1c(C)[nH][nH]c1=O`, for which the AC50 was 18.1 µM.

For the compound `CN1CCN(C(c2ccc(Cl)cc2)c2cc(Cl)c3cccnc3c2O)CC1` (stereo not given), the AC50 is 24.8 µM.

`CC1=NN(c2ccc(C(=O)O)c(N)c2)C(=O)C1`: the AC50 is 2.87 µM.

With `COc1ccc(-c2cc(=O)n(-c3ccc([N+](=O)[O-])cc3)[nH]2)cc1`, the AC50 was 3.4 µM.

As for `ClC(Cl)(Cl)c1nc2ccccc2n2nncc12`, the AC50 was > 38 µM (inactive).

For `CCN1CCN(c2c(Cl)cccc2NC(=O)c2ccc3c(c2)OCCO3)CC1`, the AC50 is > 38 µM (inactive).

Regarding `Cc1nc2ccccc2c2c1C(=O)N(C(C)C)C2=O`, the AC50 was > 38 µM (inactive).

Turning to `Cc1ccc(C2C(C#N)=C(N)Oc3nc(-c4ccccc4)[nH]c32)o1` (stereo not given), the AC50 is > 38 µM (inactive).

For the compound `CN(C)/C=C/C(=O)c1ccc2noc(-c3ccc(F)cc3)c2c1`, the AC50 is > 38 µM (inactive).

For `O=c1c2ccccc2nc(/C=C/c2cccnc2)n1CCc1ccccc1`, the half-maximal activity concentration (AC50) is 15.9 µM.

For `CCN(Cc1ccccc1)S(=O)(=O)c1ccc(C(=O)N(CCCN(C)C)c2nc3cc(C)cc(C)c3s2)cc1`, the half-maximal activity concentration (AC50) is 15.1 µM.

On to `C=C(C)CNC(=S)N=Nc1c(O)[nH]c2ccc([N+](=O)[O-])cc12`, for which the AC50 is > 38 µM (inactive).

As for `Cc1ccc(-c2nnc(Sc3nc4ccccc4o3)c3ccccc23)cc1`, the AC50 is 4.13 µM.

On to `CCCn1c(CC)nc([N+](=O)[O-])c1S(=O)(=O)c1ccccc1`, for which the AC50 is > 38 µM (inactive).

In the case of `Cc1[nH]n(C(C)(C)C)c(=O)c1Sc1ccccc1`, the AC50 is > 38 µM (inactive).

With `Cc1sc(NC(=O)/C=C/C(=O)O)c(C(N)=O)c1-c1ccc(C(C)(C)C)cc1`, the AC50 is 11.9 µM.

Turning to `Cc1[nH]n(-c2ccccc2)c(=O)c1C(C[N+](=O)[O-])c1ccccc1Cl` (stereo not given), the AC50 was 7.38 µM.

In the case of `CCC(=O)Nc1c(C)nn(C(=O)CC)c1C`, the AC50 was > 38 µM (inactive).

In the case of `Nc1ccc2c(c1)C(=O)C(=O)c1ccccc1-2`, the AC50 is 17.6 µM.

In the case of `Nc1ccc2nc[nH]c2c1`, the AC50 was 10.6 µM.

With `CCOc1cc(/C=C2\C(=N)N3N=C(N4CCCCC4)SC3=NC2=O)ccc1OC(=O)c1ccco1`, the AC50 is > 38 µM (inactive).

For `O=C(CCl)Nc1cccc(Oc2ccccc2)c1`, the AC50 is 6.15 µM.

`O=C(CCl)N1N=C(c2ccco2)CC1c1ccco1` (stereo not given): the AC50 is 19.1 µM.

Turning to `CCCc1[nH][nH]c(=O)c1C(c1ccc(Br)cc1)C(C#N)C#N` (stereo not given), the AC50 is 32.2 µM.

On to `Cc1ccc(C(c2c(C)[nH][nH]c2=O)c2c(C)[nH][nH]c2=O)cc1[N+](=O)[O-]`, for which the AC50 is 32.1 µM.

Consider `CC(=O)c1cc(O)c2ccccc2c1O`, for which the AC50 was 13.3 µM.

Consider `CCCCCCCCOC(=O)c1c(CSC(=N)N)n(C)c2cc(Br)c(OC(C)=O)cc12`, for which the AC50 is 14.5 µM.

Consider `Cc1sc2ncnc(Sc3nnnn3-c3ccccc3)c2c1C`, for which the AC50 was > 38 µM (inactive).

As for `Cc1cc(C(=O)c2ccccc2)c(NC(=O)CCl)s1`, the concentration at half-maximal activity (AC50) was 7.09 µM.

Regarding `Cc1ccc(C(=O)NC2(O)C(=O)c3ccccc3C2=O)cc1C`, the AC50 was 6.09 µM.

Turning to `Cc1cccc(S(=O)(=O)C(C#N)c2nc3ccccc3nc2N2CCCC2)c1` (stereo not given), the AC50 was > 38 µM (inactive).

In the case of `COCc1[nH]nc2c1C(c1cccc(OC)c1)C(C#N)=C(N)O2` (stereo not given), the AC50 was > 38 µM (inactive).

For `CC(C)CC(NC(=O)CCl)c1ccccc1` (stereo not given), the AC50 was 5.47 µM.

In the case of `CC(/C=N/NC(=O)Cc1cc(=O)[nH][nH]1)=C\c1ccccc1`, the AC50 was 27 µM.

Regarding `CC(=O)OCCN(C)c1cc(SC(C)C)c2nonc2c1[N+](=O)[O-]`, the AC50 was > 38 µM (inactive).

As for `CS/C(=C\[N+](=O)[O-])Nc1ccc(Cl)cc1`, the AC50 is > 38 µM (inactive).

For the compound `COc1cc(C2CC(c3cccs3)=NN2C(=O)CCl)ccc1OC(F)F` (stereo not given), the AC50 is > 38 µM (inactive).

For the compound `CN1c2ccccc2C(C)(C)C12C=Nc1c(ccc3ccccc13)O2` (stereo not given), the AC50 was 21.2 µM.

`CCN(C(=O)CSc1ncccc1C(=O)Oc1cccc([N+](=O)[O-])c1)c1cccc(C)c1`: the AC50 is > 38 µM (inactive).

As to `C=CCn1c(N)c(C(=O)Nc2cccc(C)c2)c2nc3ccccc3nc21`, the AC50 was 14.4 µM.

Regarding `CC(C)c1[nH]nc2c1C(c1cccc(OC(=O)N3CCOCC3)c1)C(C#N)=C(N)O2` (stereo not given), the AC50 is > 38 µM (inactive).

Take `O=c1cc(-c2cccc([N+](=O)[O-])c2)[nH][nH]1`: the AC50 was 9.77 µM.

On to `CCn1c(-c2ccccc2)c(C(=O)CCl)c2ccccc21`, for which the AC50 was 6.01 µM.

`Cc1nc2ccccc2c2c1C(=O)N(C)C2=O`: the AC50 was > 38 µM (inactive).

For the compound `O=C1NCN(c2ccccc2)C12CCN(CCCC(c1ccc(F)cc1)c1ccc(F)cc1)CC2`, the AC50 was 16.5 µM.

As to `CC1=NN(c2ccc(Cl)cc2)C(=O)C1`, the AC50 was 3.71 µM.

With `Oc1cccc(C=Nc2cccc3ccccc23)c1O`, the half-maximal activity concentration (AC50) is 4.42 µM.

Turning to `CCCCC(O)(CCCC)C(=O)NN(C(=O)CCl)c1ccccc1`, the AC50 is 6.32 µM.

For the compound `N#Cc1c(N2CCCCC2)nc(N)c2c(N)nc(SCC(=O)O)cc12`, the AC50 is > 38 µM (inactive).

For the compound `CC(=O)N(C1=C(N2CCOCC2)C(=O)c2ccccc2C1=O)c1ccc(C(=O)O)cc1`, the AC50 is 9.14 µM.

In the case of `O=C1C=C(N(CCO)Cc2ccccc2)c2ccccc2C1=O`, the AC50 was 4.49 µM.

As for `CC1(C)CC(=O)C(C2(O)C(=O)NC(=O)NC2=O)=C(O)C1`, the AC50 was 1.79 µM.

Turning to `Cc1ccccc1C(CC(=O)c1cccs1)C(C#N)C#N` (stereo not given), the AC50 is 6.53 µM.

One may read the AC50 as the concentration at which the activity in the assay is half-maximal.
